Data: PMC6131161, “Adjunctive use of celecoxib with anti-tuberculosis drugs: evaluation in a whole-blood bactericidal activity model” (Scientific Reports, 2018)
Values joined by “and” are separate entries in the source; they are usually repeats but may differ in a detail not shown here. Equal entries are not always repeated. “Also recorded” adds a separate entry of the source.

Assays:
[1] = tested on: Mycobacterium tuberculosis (H37Rv); assay: Whole-blood bactericidal activity (WBA) assay, ex vivo, blood of dosed healthy volunteers; format: cell-based; conditions: for WBAcum(0–8) / WBAmax: mean (SD); for bactericidal activity in the WBA assay (in words): drug alone, single oral dose, over 8 hours post-dose
[2] = clinical; conditions: human, in vivo, po, 10 mg/kg
[3] = Plasma pharmacokinetics in healthy volunteers (LC-MS/MS, non-compartmental analysis); conditions: for Cmax / Tmax / half-life / AUC(0-t): human, plasma, po; for Tmax: median (min, max); for half-life: mean (SD); for AUC(0-t): AUC(0–8)
[4] = TB drug + Celecoxib: rifampicin 10 mg/kg with celecoxib 400 mg oral, RIF group, n = 7
[5] = TB drug alone: rifampicin 10 mg/kg single oral dose, RIF group, n = 9
[6] = TB drug alone: rifampicin 10 mg/kg single oral dose, RIF group, n = 9, listed as RIF
[7] = Celecoxib alone 400 mg single oral dose, PZA group, n = 9
[8] = Celecoxib alone 400 mg single oral dose, RIF group, n = 9
[9] = celecoxib levels in plasma, PZA + C, celecoxib 400 mg with pyrazinamide 25 mg/kg oral, geometric mean (min, max)
[10] = celecoxib levels in plasma, RIF + C, celecoxib 400 mg with rifampicin 10 mg/kg oral, geometric mean (min, max)
[11] = TB drug + Celecoxib: pyrazinamide 25 mg/kg with celecoxib 400 mg oral, PZA group, n = 9
[12] = TB drug alone: pyrazinamide 25 mg/kg single oral dose, PZA group, n = 9
[13] = TB drug alone: pyrazinamide 25 mg/kg single oral dose, PZA group, n = 9, listed as PZA
[14] = 25 mg/kg, pyrazinamide levels in plasma, PZA alone, 25 mg/kg single oral dose, geometric mean (min, max)
[15] = pyrazinamide levels in plasma, PZA + C, pyrazinamide 25 mg/kg with celecoxib 400 mg oral, geometric mean (min, max)

CO[C@H]1/C=C/O[C@@]2(C)Oc3c(C)c(O)c4c(O)c(c(/C=N/N5CCN(C)CC5)c(O)c4c3C2=O)NC(=O)/C(C)=C\C=C\[C@H](C)[C@H](O)[C@@H](C)[C@@H](O)[C@@H](C)[C@H](OC(C)=O)[C@@H]1C [Rifampicin, rifampicin]
WBAcum(0–8), mean difference for TB drug with and without celecoxib (95% CI) ([1]; RIF group, paired data n = 7): 0.00 (−0.02, 0.02) ΔlogCFU
WBAmax, mean difference for TB drug with and without celecoxib (95% CI) ([1]; RIF group, paired data n = 7): −0.03 (−0.25, 0.18) ΔlogCFU
WBAcum(0–8) [1, 4]: −0.22 (0.03) ΔlogCFU
WBAmax [1, 4]: −2.51 (0.23) ΔlogCFU
WBAcum(0–8) [1, 5]: −0.22 ± 0.02 ΔlogCFU
WBAmax [1, 5]: −2.48 ± 0.24 ΔlogCFU
WBAcum(0–8) [1, 6]: −0.22 (0.02) ΔlogCFU
WBAmax [1, 6]: −2.48 (0.24) ΔlogCFU
bactericidal activity in the WBA assay (in words) [1]: strong bactericidal activity
AUC(0-t) ([2]; AUC(0–8)): 92300 ng·h/mL
Cmax ([2]; Cmax): 19300 ng/mL
Tmax ([2]; Tmax): 1 h

Cc1ccc(-c2cc(C(F)(F)F)nn2-c2ccc(S(N)(=O)=O)cc2)cc1 [Celecoxib, celecoxib]
WBAcum(0–8) [1, 7]: 0.02 (0.01) ΔlogCFU
WBAmax [1, 7]: 0.12 (0.10) ΔlogCFU
WBAcum(0–8) ([1]; Celecoxib alone 400 mg single oral dose, RIF + PZA groups combined, n = 18, cumulative over 8 h post-dose): 0.03 ± 0.01 ΔlogCFU and 0.03 (0.01) ΔlogCFU
WBAmax ([1]; Celecoxib alone 400 mg single oral dose, RIF + PZA groups combined, n = 18, up to 8 h post-dose, negative = killing): 0.14 (0.10) ΔlogCFU
WBAcum(0–8) [1, 8]: 0.03 (0.01) ΔlogCFU
WBAmax [1, 8]: 0.17 (0.09) ΔlogCFU
bactericidal activity in the WBA assay (in words) [1]: no bactericidal activity; also recorded: no activity alone
effect of celecoxib on rifampicin or pyrazinamide drug levels (in words) ([3]; celecoxib 400 mg co-administered with rifampicin 10 mg/kg or pyrazinamide 25 mg/kg): no significant effect
Cmax and AUC(0–8hrs) of celecoxib when co-administered with the TB drugs (in words) ([3]; celecoxib 400 mg with rifampicin or pyrazinamide versus alone): non-significant trend towards lower
AUC(0–8) ([3]; celecoxib levels in plasma, C alone, celecoxib 400 mg single oral dose, geometric mean (min, max)): 5.97 (2.91, 10.25) h*mg/L
Cmax ([3]; 400 mg, celecoxib levels in plasma, C alone, celecoxib 400 mg single oral dose, geometric mean (min, max)): 1140 ng/mL
Tmax ([3]; 400 mg, celecoxib levels in plasma, C alone, celecoxib 400 mg single oral dose): 2 h
half-life ([3]; 400 mg, t1/2, celecoxib levels in plasma, C alone, celecoxib 400 mg single oral dose): 269 min
AUC(0-t) [3, 9]: 4.23 µg·h/mL
AUC(0-t) [3, 10]: 4.53 µg·h/mL
Cmax [3, 9]: 760 ng/mL
Cmax [3, 10]: 890 ng/mL
Tmax ([3]; celecoxib levels in plasma, PZA + C, celecoxib 400 mg with pyrazinamide 25 mg/kg oral): 3 h
Tmax ([3]; celecoxib levels in plasma, RIF + C, celecoxib 400 mg with rifampicin 10 mg/kg oral): 2 h
half-life ([3]; t1/2, celecoxib levels in plasma, PZA + C, celecoxib 400 mg with pyrazinamide 25 mg/kg oral, includes 24 hour data where available): 437 min
half-life ([3]; t1/2, celecoxib levels in plasma, RIF + C, celecoxib 400 mg with rifampicin 10 mg/kg oral, includes 24 hour data where available): 399 min

NC(=O)c1cnccn1 [Pyrazinamide, pyrazinamide]
WBAcum(0–8), mean difference for TB drug with and without celecoxib (95% CI) ([1]; PZA group, paired data n = 9): −0.01 (−0.03, 0.00) ΔlogCFU
WBAmax, mean difference for TB drug with and without celecoxib (95% CI) ([1]; PZA group, paired data n = 9): −0.09 (−0.22, 0.04) ΔlogCFU
WBAcum(0–8) [1, 11]: 0.00 (0.01) ΔlogCFU
WBAmax [1, 11]: −0.12 (0.10) ΔlogCFU
WBAcum(0–8) [1, 12]: 0.01 ± 0.03 ΔlogCFU
WBAmax [1, 12]: −0.03 ± 0.23 ΔlogCFU
WBAcum(0–8) [1, 13]: 0.01 (0.03) ΔlogCFU
WBAmax [1, 13]: −0.03 (0.23) ΔlogCFU
bactericidal activity in the WBA assay (in words) [1]: no bactericidal activity; also recorded: appeared to be bacteriostatic
AUC(0-t) [3, 14]: 207 µg·h/mL
Cmax [3, 14]: 35500 ng/mL
Tmax ([3]; 25 mg/kg, pyrazinamide levels in plasma, PZA alone, 25 mg/kg single oral dose): 1 h
half-life ([3]; 25 mg/kg, t1/2, pyrazinamide levels in plasma, PZA alone, 25 mg/kg single oral dose): 687 min
AUC(0-t) [3, 15]: 212 µg·h/mL
Cmax [3, 15]: 35100 ng/mL
Tmax ([3]; pyrazinamide levels in plasma, PZA + C, pyrazinamide 25 mg/kg with celecoxib 400 mg oral): 1 h
half-life ([3]; t1/2, pyrazinamide levels in plasma, PZA + C, pyrazinamide 25 mg/kg with celecoxib 400 mg oral, includes 24 hour data where available): 674 min
